Patent US20240239752A1, “BICYCLIC HETEROAROMATIC INHIBITORS OF KLK5” (BioCryst Pharmaceuticals, Inc., priority 2021, published 2024)

Molecular target: T1, recombinant human KLK5 (Homo sapiens, UniProt Q9Y337)
T1 construct: purchased Novoprotein or R&D Systems C415 or 1108-SE
T1 sequence (Q9Y337 23-293): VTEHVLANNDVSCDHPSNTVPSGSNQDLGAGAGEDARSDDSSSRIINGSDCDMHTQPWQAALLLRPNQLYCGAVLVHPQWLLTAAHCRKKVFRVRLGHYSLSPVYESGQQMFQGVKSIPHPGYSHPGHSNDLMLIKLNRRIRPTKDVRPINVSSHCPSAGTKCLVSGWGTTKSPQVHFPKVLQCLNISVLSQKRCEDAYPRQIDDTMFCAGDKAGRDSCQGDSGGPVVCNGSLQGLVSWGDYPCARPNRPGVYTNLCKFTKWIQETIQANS
Experiment: Kallikrein (KLK) 5 enzymatic assay (Boc-VPR-AMC fluorogenic substrate)
Type: biochemical
Conditions: recombinant human KLK5 0.1 μg/well, Boc-VPR-AMC 100 μM, pH 7.5, room temperature, 1% DMSO; tested a minimum of three times
Method in brief: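 Recombinant human KLK5 (0.1 μg/well) was preincubated with compound at room temperature in 0.1 M NaH2PO4, pH 7.5, 1% DMSO, then started with 100 μM Boc-VPR-AMC. The rate was followed at 380/460 nm, and IC50 came from percent inhibition relative to enzyme alone, with at least three runs.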

SMILES	IC50
Nc1nccc2c(-c3cc(-c4ccccc4)c4c(c3)C(Oc3ccccc3CC(=O)O)CC4)cccc12 (stereo not shown) [Compound 256f, 2-(2-((6-(1-aminoisoquinolin-5-yl)-4-phenyl-2,3-dihydro-1H-inden-1-yl)oxy)phenyl)acetic acid]	1000 to 10000 nM
Nc1nccc2c(-c3cc(C4CC4)c4c(c3)C(Oc3ccccc3CC(=O)O)CC4)cccc12 (stereo not shown) [Compound 257b, 2-(2-((6-(1-aminoisoquinolin-5-yl)-4-cyclopropyl-2,3-dihydro-1H-inden-1-yl)oxy)phenyl)acetic acid]	< 1000 nM
Nc1nccc2c(-c3cc(Cl)c4c(c3)C(Oc3ccccc3CC(=O)O)CC4)cccc12 (stereo not shown) [Compound 258a, 2-(2-((6-(1-aminoisoquinolin-5-yl)-4-chloro-2,3-dihydro-1H-inden-1-yl)oxy)phenyl)acetic acid]	< 1000 nM
Cc1cccc(O[C@@H]2CCc3ccc(-c4cccc5c(N)nccc45)cc32)c1CC(=O)O [Compound 259c, (R)-2-(2-((6-(1-aminoisoquinolin-5-yl)-2,3-dihydro-1H-inden-1-yl)oxy)-6-methylphenyl)acetic acid]	< 1000 nM
Cc1cccc(O[C@@H]2CCc3ccc(-c4ccc5ccnc(N)c5c4)cc32)c1CC(=O)O [Compound 260b, (R)-2-(2-((6-(1-aminoisoquinolin-7-yl)-2,3-dihydro-1H-inden-1-yl)oxy)-6-methylphenyl)acetic acid]	< 1000 nM
Nc1nccc2c(-c3cc(-c4ccoc4)c4c(c3)C(Oc3ccccc3CC(=O)O)CC4)cccc12 (stereo not shown) [Compound 261b, 2-(2-((6-(1-aminoisoquinolin-5-yl)-4-(furan-3-yl)-2,3-dihydro-1H-inden-1-yl)oxy)phenyl)acetic acid]	< 1000 nM
CC(C)n1nc(COc2ccccc2CC(=O)O)c2cc(-c3cccc(C(=N)N)c3O)ccc21 [Compound 262e, 2-(2-((5-(3-carbamimidoyl-2-hydroxyphenyl)-1-isopropyl-1H-indazol-3-yl)methoxy)phenyl)acetic acid]	< 1000 nM
COc1c(C(=N)N)cccc1-c1ccc2c(c1)c(COc1ccccc1CC(=O)O)nn2C1CCOC1 (stereo not shown) [Compound 264d, 2-(2-((5-(3-carbamimidoyl-2-methoxyphenyl)-1-(tetrahydrofuran-3-yl)-1H-indazol-3-yl)methoxy)phenyl)acetic acid]	< 1000 nM
Nc1nccc2c(-c3ccc4c(c3)c(COc3ccccc3CC(=O)O)nn4C3CCC(F)(F)C3)cccc12 (stereo not shown) [Compound 265h, 2-(2-((5-(1-aminoisoquinolin-5-yl)-1-(3,3-difluorocyclopentyl)-1H-indazol-3-yl)methoxy)phenyl)acetic acid]	< 1000 nM
COc1cccc(CC(=O)O)c1OCc1coc2c(OC)cc(-c3ccc4ccnc(N)c4c3)cc12 [Compound 267g, 2-(2-((5-(1-aminoisoquinolin-7-yl)-7-methoxybenzofuran-3-yl)methoxy)-3-methoxyphenyl)acetic acid]	> 10000 nM
N=C(N)c1cccc(-c2cc3c(COc4ccccc4C(O)C(=O)O)cccc3o2)c1 (stereo not shown) [Compound 268d, 2-(2-((2-(3-carbamimidoylphenyl)benzofuran-4-yl)methoxy)phenyl)-2-hydroxyacetic acid]	1000 to 10000 nM
COc1cc2nn(C3CCC3)c(COc3ccccc3CC(=O)O)c2cc1-c1ccc2ccnc(N)c2c1 [Compound 269f, 2-(2-((5-(1-aminoisoquinolin-7-yl)-2-cyclobutyl-6-methoxy-2H-indazol-3-yl)methoxy)phenyl)acetic acid]	< 1000 nM
COc1cc2nn(C3CCC3)c(COc3ccccc3CC(=O)O)c2cc1-c1cccc(C(=N)N)c1 [Compound 271c, 2-(2-((5-(3-carbamimidoylphenyl)-2-cyclobutyl-6-methoxy-2H-indazol-3-yl)methoxy)phenyl)acetic acid]	1000 to 10000 nM
CC(C)Oc1c(C(=N)N)cccc1-c1ccc2c(c1)c(COc1ccccc1CC(=O)O)nn2C(C)C [Compound 272f, 2-(2-((5-(3-carbamimidoyl-2-isopropoxyphenyl)-1-isopropyl-1H-indazol-3-yl)methoxy)phenyl)acetic acid]	1000 to 10000 nM
Cc1cccc(OCc2nn(C3CCC(F)(F)C3)c3ccc(-c4cccc5c(N)nccc45)cc23)c1CC(=O)O (stereo not shown) [Compound 276c, 2-(2-((5-(1-aminoisoquinolin-5-yl)-1-(3,3-difluorocyclopentyl)-1H-indazol-3-yl)methoxy)-6-methylphenyl)acetic acid]	< 1000 nM
CC(C)(C)OC(=O)NCc1cc(-c2cccc3c(N)nccc23)cc2c(COc3ccccc3CC(=O)O)nn(C3CCCCO3)c12 (stereo not shown) [Compound 278c, 2-(2-((5-(1-aminoisoquinolin-5-yl)-7-(((tert-butoxycarbonyl)amino)methyl)-1-(tetrahydro-2H-pyran-2-yl)-1H-indazol-3-yl)methoxy)phenyl)acetic acid]	1000 to 10000 nM
NCc1cc(-c2cccc3c(N)nccc23)cc2c(COc3ccccc3CC(=O)O)n[nH]c12 [Compound 280a, 2-(2-((5-(1-aminoisoquinolin-5-yl)-7-(aminomethyl)-1H-indazol-3-yl)methoxy)phenyl)acetic acid]	1000 to 10000 nM

Continued, values first:

IC50	SMILES
< 1000 nM	COc1c(C(=N)N)cccc1-c1ccc2c(c1)c(COc1ccccc1CC(=O)O)nn2C1CCCC1 [Compound 263d, 2-(2-((5-(3-carbamimidoyl-2-methoxyphenyl)-1-cyclopentyl-1H-indazol-3-yl)methoxy)phenyl)acetic acid]
< 1000 nM	Nc1nccc2ccc(-c3ccc4c(c3)c(COc3ccccc3CC(=O)O)nn4C3CCC(F)(F)C3)cc12 (stereo not shown) [Compound 266b, 2-(2-((5-(1-aminoisoquinolin-7-yl)-1-(3,3-difluorocyclopentyl)-1H-indazol-3-yl)methoxy)phenyl)acetic acid]
> 10000 nM	COc1cc2nn(C3CCC3)c(COc3ccccc3CC(=O)O)c2cc1-c1cccc2c(N)nccc12 [Compound 270b, 2-(2-((5-(1-aminoisoquinolin-5-yl)-2-cyclobutyl-6-methoxy-2H-indazol-3-yl)methoxy)phenyl)acetic acid]
< 1000 nM	CCOc1c(C(=N)N)cccc1-c1ccc2c(c1)c(COc1ccccc1CC(=O)O)nn2C(C)C [Compound 273e, 2-(2-((5-(3-carbamimidoyl-2-ethoxyphenyl)-1-isopropyl-1H-indazol-3-yl)methoxy)phenyl)acetic acid]
1000 to 10000 nM	Nc1nccc2c(-c3ccc4c(c3)c(Cn3ccc5cccc(C(=O)O)c53)nn4C3CCOC3)cccc12 (stereo not shown) [Compound 274e, 1-((5-(1-aminoisoquinolin-5-yl)-1-(tetrahydrofuran-3-yl)-1H-indazol-3-yl)methyl)-1H-indole-7-carboxylic acid]
> 10000 nM	Nc1nccc2ccc(-c3ccc4c(c3)c(Cn3ccc5cccc(C(=O)O)c53)nn4C3CCOC3)cc12 (stereo not shown) [Compound 275b, 1-((5-(1-aminoisoquinolin-7-yl)-1-(tetrahydrofuran-3-yl)-1H-indazol-3-yl)methyl)-1H-indole-7-carboxylic acid]
< 1000 nM	Cc1cccc(OCc2nn(C3CCC(F)(F)C3)c3ccc(-c4ccc5ccnc(N)c5c4)cc23)c1CC(=O)O (stereo not shown) [Compound 277b, 2-(2-((5-(1-aminoisoquinolin-7-yl)-1-(3,3-difluorocyclopentyl)-1H-indazol-3-yl)methoxy)-6-methylphenyl)acetic acid]
< 1000 nM	Nc1nccc2c(-c3cnc4c(c3)c(COc3ccccc3CC(=O)O)cn4C3CCOC3)cccc12 (stereo not shown) [Compound 279g, 2-(2-((5-(1-aminoisoquinolin-5-yl)-1-(tetrahydrofuran-3-yl)-1H-pyrrolo[2,3-b]pyridin-3-yl)methoxy)phenyl)acetic acid]
